Patent US20230266321A1, “LIVE CELL ENGAGEMENT ASSAY” (Icahn School of Medicine at Mount Sinai, priority 2020, published 2023)

What was measured:
[1] = tested on: phosphorylated ERK1/2 (T202/Y204); test: Immunoblot of RAS/ERK pathway inhibition; type: cell-based, human; conditions: 1 hour, increasing concentrations, relative to trametinib
Method: Cells were plated at a density of 300,000 cells per well in 6-well plates in 2 mL of culture medium. 24 hours after seeding, cells were treated with compounds or DMSO at a 1:1000 dilution (0.1 % DMSO in final volume). […] Samples were normalized to a protein content of 5 µg/µL in 100 µL total volume, and 20 µL of 6x SDS was added. […] Transfers were confirmed using ponceau red, washed, and then blocked for 1 hour with 5% BSA TBS-T, prior to overnight incubation with primary antibodies including phospho-ERK1/2 T202/Y204 and total ERK1/2 (Cell Signaling Technologies (CST) 9101S and 4695S, respectively) in 5% BSA TBS-T. The next day, blots were washed extensively, and incubated in secondary antibody (Anti-Rabbit IgG HRP-Linked CST 7074S).

[2] = tested on: MEK1 and MEK2 (kinase panel incl. BRAF, CRAF); test: In vitro kinase profiling, direct binding assays; conditions: 1 µM
BRAF-MEK1 complex = BRAF-MEK1 complex (Homo sapiens, UniProt Q02750); conditions: HCT116 cells, 200 nM, 1 hour
[3] = tested on: MEK1, MEK2 and upstream kinases BRAF, CRAF; test: In vitro kinase profiling, substrate phosphorylation assays; type: biochemical; conditions: incl. BRAF and CRAF phosphorylation of MEK1 as substrate
[4] = biological target: T1, mouse KSR1-luc (KSR-bound MEK) (UniProt Q02750+Q61097); test: NanoBRET in-cell steady-state competition with tram-bo on KSR1-luc; type: cell-based
T1 construct: expressed in transfected cells; host or cells: HEK293T

HCT116 cells = test: Cell proliferation/viability assay under low-adherence conditions; type: cell-based, human
Method: A375, A549, HCT116, and SKMEL-239 cells were plated in Corning Costar Ultra-Low Attachment 96-well plates (Reference number 3434). After 24 hours of incubation at 37° C., cells were treated with inhibitors (0.1% DMSO in final volume). Cells were grown for five days, and resazurin sodium salt was added at a final concentration of 0.01 µg/µL. Fluorescence was measured using a Molecular Devices SpectraMax M5 spectrophotometer after a 4-24-hour incubation with resazurin solution. Technical triplicate values were averaged for each experiment, and biological replicate values are represented as average +/- standard deviation. For each cell line, logEC50 values of inhibitors were statistically compared using the extra sum-of-squares F test in GraphPad Prism 8 (FIGS. 57, 58, 67, 68, 69).

KRAS-G12S A549 cells = test: Long-term clonogenic assay; type: cell-based, human; conditions: 10 nM final concentration, in comparison to amide-linker compounds (eg. 1, 3)
Method: Cells were plated at a density of 6,000 cells per well in 6-well plates in 3 mL of culture medium. Twenty-four hours after seeding, compounds dissolved in DMSO or DMSO-only vehicles were added directly to the culture media at a 1:1000 dilution. Following 10 days of culture, cells were washed 2x in PBS, fixed in ice-cold methanol for 10 minutes, stained with crystal-violet at room temperature for 10 minutes, and subsequently washed three times in water. Plates were allowed to dry overnight before imagining with an Epson V600 scanner.

KSR1-MEK1 complex = KSR1-MEK1 complex (UniProt Q02750+Q61097, P775N); conditions: HCT116 cells, 200 nM, 1 hour
MEK1-luc = MEK1-luc (Homo sapiens, UniProt Q02750); test: NanoBRET washout / intracellular residence time on MEK1-luc; conditions: cells pre-treated with MEKi, washed, 1 µM tram-bo added
[5] = tested on: luciferase-tagged human KSR1, KSR2, ARAF, BRAF, and CRAF/RAF1; test: RAF family tram-bo buildup curves (NanoBRET); type: cell-based; conditions: BRET buildup curves with increasing tracer concentrations
Method: Human c-terminal NanoLuc fusions versions of ARAF (Uniprot P10398), BRAF (UniProt P15056), CRAF (Uniprot P04049), KSR1 (Uniprot Q8IVT5), and KSR2 (Uniprot Q6VAB6) were transfected as mentioned above at a concentration of 0.1 µg/mL in combination with 9.9 µg/mL of carrier DNA. All RAF constructs from Promega. […] A 20x tram-bo solution was added to each well to give final concentrations of 4, 1, 0.5, 0.1, 0.05, 0.01, 0.001, 0.0001 µM. […] All data were analyzed using Prism 8 (GraphPad).

MEK-NL = biological target: T2, MEK-NL (Homo sapiens, UniProt Q02750); test: Tracer buildup curves on MEK-NLuc (NanoBRET); type: cell-based; conditions: HEK293T cells, 2 hrs at 37° C.; read-out: binding affinity to MEK-NL (tracer buildup curves)
T2 construct: expressed in transfected cells; host or cells: HEK293T
Method: (v) Tram-bo and PD-bo buildup curves measure on MEK-NLuc. A human C-terminal NanoLuc fusion of MEK was transfected as mentioned above at a concentration of […] in combination with […] of carrier DNA. […] A 20x solution was added to each well to give final concentrations of 2, 1, 0.5, 0.1, 0.05, 0.01, 0.001, 0.0001 mM for PD-bo, and 1, 0.1, 0.05, 0.01, 0.005, 0.001, 0.0001, 0.00001 for Tram-bo. […] All data were analyzed using Prism 8 (GraphPad)

[6] = HCT116, low-adherence conditions

**Q.** Which “inhibition of RAS-MAPK signaling as measured by pERK” value [1] does the source give for `CNS(=O)(=O)Nc1cccc(-n2c(=O)n(C3CC3)c(=O)c3c(Nc4ccc(I)cc4F)n(C)c(=O)c(C)c32)c1` [trametiglue] here?
**A.** The value was “higher potency inhibitor of RAS-MAPK signaling”.

**Q.** What about the “direct interaction with isolated BRAF or CRAF in binding experiments” value [2] of the same molecule?
**A.** Its value is “no direct interactions towards isolated BRAF or CRAF”.

**Q.** What about the “selectivity in direct binding assays” value [2] of the same molecule?
**A.** The value was “strong selectivity towards MEK1 and MEK2”.

**Q.** And the “effect on BRAF pulled down via endogenous MEK1 (co-IP)” value (BRAF-MEK1 complex)?
**A.** The value was “markedly enhanced capture of BRAF”.

**Q.** What about the “inhibition in substrate phosphorylation assays” value [3] of the same molecule?
**A.** The value was “not only inhibited MEK1 and MEK2, but also upstream kinases”.

**Q.** What about the “potency and off-rate kinetics in cellular target engagement assays” value ([4]; KSR-luc or MEK-luc reporters, residence time at 6.25 nM) of the same molecule?
**A.** Its value is “retained similar potency and off-rate kinetics as trametinib”.

**Q.** What about the “improvement in potency relative to CH5126766” value (HCT116 cells; [6]) of the same molecule?
**A.** The value was about 200 fold.

**Q.** What about the “improvement in potency relative to trametinib” value (HCT116 cells; [6]) of the same molecule?
**A.** The value was “approximately 7 fold”.

**Q.** What about the IC50 (HCT116 cells; low-adherence conditions, five days, resazurin, read-out: IC50 in the cell line HCT116) of the same molecule?
**A.** The IC50 was 0.07 ± 0.04 nM.

**Q.** And the “growth inhibition in long-term clonogenic assay” value (from here on “growth inhibition”) (KRAS-G12S A549 cells)?
**A.** The value was “enhanced and durable growth inhibition”.

**Q.** For `Cc1c(=O)n(C)c(Nc2ccc(I)cc2F)c2c(=O)n(C3CC3)c(=O)n(-c3cccc(NS(=O)(=O)NC4CC4)c3)c12` [compound 5], which “growth inhibition” value (KRAS-G12S A549 cells) is on record?
**A.** The value was “enhanced and durable growth inhibition”.

**Q.** `CNS(=O)(=O)Nc1nccc(Cc2c(C)c3ccc(Oc4ncccn4)cc3oc2=O)c1F` [CH5126766, reference compound] was tested. Which “effect on BRAF pulled down via endogenous MEK1 (co-IP)” value (BRAF-MEK1 complex) did it give?
**A.** Its value is “enhances interactions between endogenous BRAF and MEK1”.

**Q.** For `O=C(c1ccc(F)c(F)c1Nc1ccc(I)cc1F)N1CC(O)([C@@H]2CCCCN2)C1` [cobimetinib], which “effect on complex stability of K1 (KSR1 P775N) and B2 (BRAF R662A) mutants with MEK (co-IP)” value (KSR1-MEK1 complex) is on record?
**A.** The value was “did not alter complex stability”.

**Q.** What about the “dissociation kinetics after washout on MEK1-luc” value (MEK1-luc) of the same molecule?
**A.** Its value is “dissociated more readily”.

**Q.** What about the IC50 ([4]; HEK293T cells, 1 µM tram-bo tracer, equilibrium binding, mean ± s.e.m., read-out: steady-state IC50 against KSR1-luc) of the same molecule?
**A.** Its IC50 is 5.1 ± 0.7 nM.

**Q.** What about the “difference in potency between KSR1-luc and MEK1-luc” value ([4]; IC50 MEK1-luc vs KSR1-luc) of the same molecule?
**A.** Its value is about 20 fold.

**Q.** For `CCN(C)S(=O)(=O)Nc1cccc(-n2c(=O)n(C3CC3)c(=O)c3c(Nc4ccc(I)cc4F)n(C)c(=O)c(C)c32)c1` [compound 6], which “growth inhibition” value (KRAS-G12S A549 cells) is on record?
**A.** Its value is “enhanced and durable growth inhibition”.

**Q.** What does the source list for `Cc1c(=O)n(C)c(Nc2ccc(I)cc2F)c2c(=O)n(C3CC3)c(=O)n(-c3cccc(NC(=O)CCOCCOCCNC(=O)CCC4=[N+]5C(=Cc6ccc(-c7ccc[nH]7)n6[B-]5(F)F)C=C4)c3)c12` [Tram-bo]?
**A.** tighter binding on KSR1-luc and KSR2-luc relative to ARAF-luc, BRAF-luc, and CRAF-luc [5]: ~ 10 fold; EC50 (MEK-NL): 4.7 nM
